Here are results for eleven compounds from patent US20210253575A1, “PYRROLIDINE AMINE COMPOUNDS FOR THE TREATMENT OF AUTOIMMUNE DISEASE” (Hoffmann-La Roche Inc., priority 2018, published 2021).

The term IC50 denotes the concentration that inhibits the measured activity by half. Read a high IC50 as weaker potency in that assay.

The target in this assay is T1, human TLR8 (Homo sapiens, UniProt Q9NR97).
T1 sequence (Q9NR97 27-1041): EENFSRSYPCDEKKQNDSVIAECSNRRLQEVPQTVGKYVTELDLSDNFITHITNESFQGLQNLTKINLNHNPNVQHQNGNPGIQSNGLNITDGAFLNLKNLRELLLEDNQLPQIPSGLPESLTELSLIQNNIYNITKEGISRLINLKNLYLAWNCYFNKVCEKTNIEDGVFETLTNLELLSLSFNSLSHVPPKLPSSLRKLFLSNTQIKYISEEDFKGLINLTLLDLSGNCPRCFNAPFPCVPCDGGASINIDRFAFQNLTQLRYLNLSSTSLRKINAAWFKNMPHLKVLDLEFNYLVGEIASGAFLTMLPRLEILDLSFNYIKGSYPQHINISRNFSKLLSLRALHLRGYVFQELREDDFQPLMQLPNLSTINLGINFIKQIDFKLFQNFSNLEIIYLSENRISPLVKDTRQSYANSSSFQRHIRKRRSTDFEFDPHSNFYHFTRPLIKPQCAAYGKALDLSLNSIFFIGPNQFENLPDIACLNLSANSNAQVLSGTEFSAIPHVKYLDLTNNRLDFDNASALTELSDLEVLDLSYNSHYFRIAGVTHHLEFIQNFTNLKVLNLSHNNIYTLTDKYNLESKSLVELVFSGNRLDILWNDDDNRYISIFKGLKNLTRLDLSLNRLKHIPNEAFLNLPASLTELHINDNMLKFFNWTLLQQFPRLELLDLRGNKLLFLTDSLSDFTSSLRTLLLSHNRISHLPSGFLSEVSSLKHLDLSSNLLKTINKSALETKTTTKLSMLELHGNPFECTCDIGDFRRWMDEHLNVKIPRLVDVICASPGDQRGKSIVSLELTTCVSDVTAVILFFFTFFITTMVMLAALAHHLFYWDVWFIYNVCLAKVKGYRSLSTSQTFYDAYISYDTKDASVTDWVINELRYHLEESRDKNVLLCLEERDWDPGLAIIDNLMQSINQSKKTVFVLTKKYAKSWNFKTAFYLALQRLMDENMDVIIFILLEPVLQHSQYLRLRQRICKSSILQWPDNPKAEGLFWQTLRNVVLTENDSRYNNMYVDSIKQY
Put plainly: HEK293-Blue-hTLR-8 cells assay (SEAP reporter, R848 stimulation). The class given is cell-based. Conditions: HEK293-Blue-hTLR8 cells, R848 ligand, 20 hrs incubation. In short, it runs like this: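 Antagonism was measured in HEK293-Blue-hTLR8 cells with an NF-κB/AP-1-driven SEAP reporter. Cells were stimulated with R848 (10 μL of 60 uM stock) alongside compound (1% DMSO) for 20 hrs at 37° C. Supernatant SEAP was read with QUANTI-Blue after 2 hrs, absorbance at 620-655 nm.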
Compound `N#Cc1ccc(N2CC(CN3CC4(CC(N)C4)C3)C3(CC3)C2)c2nccnc12` (centres unmarked) [Example 42, 8-[7-[(6-Amino-2-azaspiro[3.3]heptan-2-yl)methyl]-5-azaspiro[2.4]heptan-5-yl]quinoxaline-5-carbonitrile] came in with an IC50 of 0.161 µM.

Turning to `N#Cc1ccc(N2CC(CN3CCC4(CCCNC4)CC3)C3(CC3)C2)c2nccnc12` (centres unmarked) [Example 13, 8-[7-(2,9-Diazaspiro[5.5]undecan-9-ylmethyl)-5-azaspiro[2.4]heptan-5-yl]quinoxaline-5-carbonitrile], the concentration for half-maximal inhibition (IC50) was determined as 0.05 µM. This IC50 is about 3.2-fold lower than that of the compound before.

In the case of `N#Cc1ccc(N2CC(CN3CCC(N)CC3)C3(CC3)C2)c2nccnc12` (centres unmarked) [Example 68, 8-[7-[(4-Amino-1-piperidyl)methyl]-5-azaspiro[2.4]heptan-5-yl]quinoxaline-5-carbonitrile], the IC50 turned out to be 0.051 µM.

`FC(F)(F)c1ccc(N2CC(CN3CCNCC3)C3(CC3)C2)c2nccnc12` (centres unmarked) [Example 20, 5-[7-(Piperazin-1-ylmethyl)-5-azaspiro[2.4]heptan-5-yl]-8-(trifluoromethyl)quinoxaline] showed an IC50 of 0.068 µM.

Consider `N#Cc1ccc(N2C[C@H](CN3CC4(CCNCC4)C3)[C@@H](C(F)(F)F)C2)c2nccnc12` [Example 48, 8-[(3S,4R)-3-(2,7-diazaspiro[3.5]nonan-2-ylmethyl)-4-(trifluoromethyl)pyrrolidin-1-yl]quinoxaline-5-carbonitrile], for which the IC50 was found to be 0.037 µM.

`N#Cc1ccc(N2C[C@H](CN3CCC4(CCNC4)C3)[C@@H](C(F)(F)F)C2)c2nccnc12` (stereo partly drawn) [Example 5, 8-[(3S,4R)-3-(2,7-diazaspiro[4.4]nonan-2-ylmethyl)-4-(trifluoromethyl)pyrrolidin-1-yl]quinoxaline-5-carbonitrile] came in with an IC50 of 0.035 µM.

The compound `CN(C)C[C@@H]1CCN(C[C@H]2CN(c3ccc(C#N)c4nccnc34)C[C@@H]2C(F)(F)F)C1` [Example 82, 8-[(3S,4R)-3-[[(3S)-3-[(dimethylamino)methyl]pyrrolidin-1-yl]methyl]-4-(trifluoromethyl)pyrrolidin-1-yl]quinoxaline-5-carbonitrile] had an IC50 of 0.108 µM.

Take `N#Cc1ccc(N2C[C@H](CN3CCC4(CCNC4)CC3)[C@@H](C(F)(F)F)C2)c2nccnc12` [Example 14, 8-[(3S,4R)-3-(2,8-Diazaspiro[4.5]decan-8-ylmethyl)-4-(trifluoromethyl)pyrrolidin-1-yl]quinoxaline-5-carbonitrile]: inhibition was half-maximal at 0.019 µM (IC50).

For the compound `N#Cc1ccc(N2C[C@H](CN3CCCC(F)(CN)C3)[C@@H](C(F)(F)F)C2)c2nccnc12` (stereo partly drawn) [Example 78, 8-[(3S,4R)-3-[[3-(aminomethyl)-3-fluoro-1-piperidyl]methyl]-4-(trifluoromethyl)pyrrolidin-1-yl]quinoxaline-5-carbonitrile], the midpoint of inhibition, the IC50, lay at 0.03 µM.

`N#Cc1ccc(N2CC(CN3CCC4NCC4C3)C3(CC3)C2)c2nccnc12` (centres unmarked) [Example 66, 8-[7-(3,7-Diazabicyclo[4.2.0]octan-3-ylmethyl)-5-azaspiro[2.4]heptan-5-yl]quinoxaline-5-carbonitrile] displayed an IC50 of 0.082 µM.

`N#Cc1ccc(N2CC(CN3CCC4(CC3)CNCCO4)C3(CC3)C2)c2nccnc12` (centres unmarked) [Example 49, 8-[7-(1-Oxa-4,9-diazaspiro[5.5]undecan-9-ylmethyl)-5-azaspiro[2.4]heptan-5-yl]quinoxaline-5-carbonitrile] returned an IC50 of 0.024 µM. This IC50 lies about 3.4-fold lower than the previous one.
